How the values were obtained:
[1] = test system: endogenous eIF4E and HA-tagged 4E-BPs in S2 cells; assay: Immunofluorescence localization in S2 cells; type: cell-based, Drosophila melanogaster; details: −LMB; for localization of endogenous eIF4E (in words): S2 cells overexpressing 4E-BP or mutant; for localization of the 4E-BP (in words): S2 cells, steady-state
eIF4E (full length, WT) = assay: GST/MBP pull-down of full-length WT eIF4E, coexpressed in E. coli; type: binding, Drosophila melanogaster; details: recombinant CUP (311–440), Thor (full length), 4E-T (1–58) or eIF4G (578–650), WT or mutant, SDS–PAGE
Procedure: For the pull-down assays shown in Fig. 3 and Supplementary Fig. 6a, the full-length His6- or SHN-tagged eIF4E (WT or II-AA mutant) was coexpressed with GST or MBP-tagged protein fragments, including CUP (residues 311–440), Thor (full length), 4E-T (residues 1–58) or eIF4G (residues 578–650) in E. coli BL21 (DE3) STAR cells in autoinducing medium[44] overnight at 20 °C. The cells were resuspended in lysis buffer (20 mM Tris–HCl (pH 7.5), 100 mM NaCl, 1 mM DTT) supplemented with EDTA-free protease inhibitor (Roche) and lysed by sonication. The cleared lysates were incubated for 1 h with 20 μl of Protino Glutathione Agarose 4B beads (Macherey-Nagel) or amylose resin (New England Biolabs). The beads were washed three times with lysis buffer, and the bound proteins were eluted with lysis buffer containing 25 mM L-glutathione or 25 mM maltose for 15 min. The proteins were analyzed by 10–15% SDS–PAGE followed by Coomassie blue staining.

endogenous eIF4E = assay: Coimmunoprecipitation / m7GTP pull-down with endogenous eIF4E in S2 cell lysates; type: cell-based, Drosophila melanogaster; details: western blot
How it was run: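 S2 cell lysates expressing HA-tagged 4E-BPs (CUP, Thor, 4E-T), eIF4G or mutants, immunoprecipitated with anti-eIF4E or anti-HA antibodies, or pulled down with m7GTP beads for 1 h at 4 °C. Washes in NET buffer (50 mM Tris pH 7.4, 150 mM NaCl, 1 mM EDTA, 0.1% Triton X-100). Bound proteins detected by anti-HA/anti-eIF4E western blot; pre-immune serum and HA-MBP as negative controls.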

[2] = test system: eIF4E II-AA mutant (full length); assay: GST/MBP pull-down of full-length eIF4E II-AA mutant, coexpressed in E. coli; type: binding, Drosophila melanogaster; details: recombinant CUP (311–440), Thor (full length), 4E-T (1–58) or eIF4G (578–650), WT or mutant, SDS–PAGE

Substance | localization of endogenous eIF4E (in words) [1] | localization of the 4E-BP (in words) [1] | binding to WT eIF4E (in words) (eIF4E (full length, WT)) | interaction with endogenous eIF4E (in words) (endogenous eIF4E) | binding to eIF4E II-AA mutant (in words) [2]
4E-T C+NC: 4E-T residues 9–44, eIF4E-binding region short, C-terminal GB1 | the number of eIF4E-positive P-bodies was reduced | still localized to P-bodies | – | – | –
4E-T C: 4E-T residues 9–21, canonical motif | the number of eIF4E-positive P-bodies was reduced | still localized to P-bodies | reduced binding | drastic reduction | reduced binding
Thor C: Thor residues 50–63, canonical motif | – | – | – | disrupted the interaction with eIF4E | strongly impaired in their binding

From paper PMC4164784, “4E-BPs require non-canonical 4E-binding motifs and a lateral surface of eIF4E to repress translation” (Nature Communications, 2014)
